Data on three compounds can be found in patent publication US3947456A, “Substituted 4-phenyl isoquinolines” (Hoffman-La Roche Inc., priority 1970, dated 1976).

By LD50 is commonly meant the dose at which mortality reaches 50%.

In series [1] the test system is rats. As to the kind of experiment: Anti-depressant activity: antagonism of symptoms induced by 2-ethyl-2-hydroxy-3-isobutyl-9,10-dimethoxy-1,3,4,6,7,11b-hexahydro-2H-benzo (a) quinolizine hydrochloride (motility, sensitivity to stimulus, seeking behavior, suppression of ptosis). The format is in vivo. As to conditions: 3 doses of 50 mg/kg p.o., benzoquinolizine 20 mg/kg s.c. 6 h after last dose, amitriptyline = 100 percent. The protocol:
The compounds of formula I above and their pharmaceutically acceptable salts are extremely effective and active as anti-depressant agents. Their useful anti-depressant activity is shown in warm-blooded animals utilizing standard test procedures. […] Six hours after the last administration the animals received 20 mg/kg of 2-ethyl-2-hydroxy-3-isobutyl-9,10-dimethoxy-1,3,4,6,7,11b-hexahydro-2H-benzo (a) quinolizine hydrochloride injected subcutaneously. The same dosage was administered to a group of 5-non-pretreated rats. The evaluation includes central and peripheral symptoms such as are characteristic for anti-depressants (See Annals of the New York Academy of Science, Vol. 96, page 279, 1962). Especially observed were the motility (climbing), sensitivity to stimulus, seeking behavior as well as the suppression of ptosis. These changes were expressed in numbers according to an evaluation scheme.
The percentage numbers stated relate to the value obtained with amitriptyline (amitriptyline = 100 percent).

Series [2] in a line: Acute toxicity (LD50), 24 hour values. As to conditions: mouse, in vivo, mice, 24 hour value. On the procedure: The low toxicity of the compounds of formula I is also illustrated by the acute toxicity (LD50) of the compounds set out in Table I. The figures set forth in Table I as to acute toxicity refer to toxicity tests performed in mice and are the 24 hour values.

Like-named read-outs stand apart in the source and are kept apart here.

`COc1ccc2c(c1)CN(C)CC2c1ccc(Cl)c(Cl)c1` (stereo not drawn) [4-(3,4-dichlorophenyl)-1,2,3,4-tetrahydro-7-methoxy-2-methylisoquinoline]: in series [1], the “Activity in % of the activity of amitriptyline” value (“Activity in %” for short) is reported as “about 128%”. In addition, the median lethal dose (LD50) at 24 h in series [2] (iv, i.v., read-out: LD50 i.v.) lay within 125 to 250 mg/kg; in series [2] (po, p.o., read-out: LD50 p.o.), 1000 to 2000 mg/kg; in series [2] (sc, s.c., read-out: LD50 s.c.), 500 to 1000 mg/kg.

As to `CN1Cc2cc(O)ccc2C(c2ccc(Cl)c(Cl)c2)C1` (stereo not drawn) [4-(3,4-dichlorophenyl)-1,2,3,4-tetrahydro-2-methyl-7-isoquinolinol], the “Activity in %” value in series [1] was “about 158%”. The median lethal dose (LD50) at 24 h was in the range of 30 to 60 mg/kg in series [2] (iv, i.v., read-out: LD50 i.v.); 500 to 1000 mg/kg in series [2] (po, p.o., read-out: LD50 p.o.); 250 to 500 mg/kg in series [2] (sc, s.c., read-out: LD50 s.c.).

In the case of `CN1Cc2cc(O)ccc2C(c2ccc(Cl)cc2)C1` (stereo not drawn) [4-(4-chlorophenyl)-1,2,3,4-tetrahydro-2-methyl-7-isoquinolinol], in series [1], the “Activity in %” value is recorded as “about 114%”. Besides, the LD50 at 24 h fell in the range of 30 to 60 mg/kg in series [2] (iv, i.v., read-out: LD50 i.v.); 1000 to 2000 mg/kg in series [2] (po, p.o., read-out: LD50 p.o.); 500 to 1000 mg/kg in series [2] (sc, s.c., read-out: LD50 s.c.).
